Data reported in patent US20230010958A1, “CANNABINOID AND LYCOPENE ANTI-INFLAMMATORY SYNERGISTIC COMBINATIONS” (LYCORED LTD., priority 2019, published 2023).

Legend:
nitric oxide (NO) = assay: NO production in bone marrow derived macrophages treated with an inflammatory stimulus (lycopene, CBDA); format: cell-based; details: CBDA alone, 2.5 µM, 5 µM, 10 µM (FIG. 8A)
Procedure: Bone marrow derived macrophages were treated with an inflammatory stimulus in the presence of various concentration of lycopene, cannabidiolic acid (CBDA), tomato extract and hemp extract in vitro. As an inflammatory outcome, nitric oxide (NO) was monitored.
Full Study with test material and benchmarks - Cells were treated with tomato and hemp extract for 24 hours to determine viability. Cells were then treated as follows; (1) medium alone (unstimulated control), (2) LPS stimulation- 10 µg/mL, (3) each crude extracts (Tomato/Hemp) at concentration of IC50, (4) LPS + crude extracts, (5) control inhibitor, and (6) LPS + control inhibitor. The tomato and hemp extract and benchmarks (lycopene, CBDA) were tested in 5 different rations; 1:10, 1:5, 1:1, 5:1, 10:1.
Nitric oxide production was determined for each treatment.

[1] = tested on: nitric oxide (NO) production; assay: NO production assay in LPS-stimulated peritoneal macrophages (Griess reagent); format: cell-based, mice; details: CBD alone, 0.05 µM to 50 µM (FIG. 1)
Procedure: Macrophage isolation and cell culture - Peritoneal macrophages were collected from the peritoneal cavity of 6-8-week-old male ICR mice (Harlan, Israel) given an intraperitoneal injection of 1.5 ml of thioglycollate broth (4%) 4 days before harvest. Peritoneal macrophages were washed three times with PBS and if needed a hypotonic lysis of erythrocytes was performed, yielding 90-95% purity. The macrophages were identified by fluorescence-activated cell sorting (FACS) analysis using FITC-conjugated rat antimouse F4/80 (MCA497F; Serotec, Oxford, England) by flow microfluorimetry on FACS (Becton Dickinson, Mountain View, CA). For each sample, 10,000 light scatter-gated viable cells were analyzed. […]
To the control groups, appropriate volumes of DMSO (0.1-0.2%) were added. The percent inhibition of each experimental group was calculated comparatively to the relevant and corresponding control.
NO production assay —NO levels in supernatants of cell cultures were determined by assaying nitrite levels using Griess reagent and sodium nitrite as a standard.
Peritoneal macrophages were incubated with the compounds 1 h before addition of LPS and cultured overnight. NO production was determined in the supernatant of the cultures and the % of inhibition from untreated macrophages was determined. […]

Macrophages = assay: MTT cell viability assay with CBD; format: cell-based; details: increasing CBD concentrations (FIG. 2)
Procedure: FIG. 2 includes a vertical bar graph showing the effect of CBD on cell viability. MTT assay was performed in the presence of increasing CBD concentrations.
The inventors initially examined the sole effect of cannabidiol (CBD) on nitric oxide (NO) production. Macrophages were stimulated, and NO production was examined in the presence of increasing CBD concentrations, ranging from 0.05 µM to 50 µM.

| SMILES | inhibition of NO production (nitric oxide (NO)) | % of NO production inhibition [1] | CBD concentration toxic to the cells (cell viability, MTT) (Macrophages) |
| --- | --- | --- | --- |
| C=C(C)[C@@H]1CCC(C)=C[C@H]1c1c(O)cc(CCCCC)c(C(=O)O)c1O [CBDA, cannabidiolic acid] | inhibits NO production in a dose dependent manner |  |  |
| C=C(C)[C@@H]1CCC(C)=C[C@H]1c1c(O)cc(CCCCC)cc1O [CBD, 2-[(6R)-3-Methyl-6-prop-l-en-2-yl-lcyclohex-2-envyl]-5pentylbenzene-l,3-diol] |  | increased in a CBD dose-dependent manner | ≥ 25 µM |
